{
  "source": "paper PMC10216263",
  "about": "“Favorable Preclinical Pharmacological Profile of a Novel Antimalarial Pyrrolizidinylmethyl Derivative of 4-amino-7-chloroquinoline with Potent In Vitro and In Vivo Activities” (Biomolecules, 2023)",
  "key": {"P. falciparum K1 (CQ-R)": {"test_system": "P. falciparum K1 (CQ-R)", "assay": "In vitro combination study (isobologram, ∑FIC)", "assay_type": "cell-based"}, "rat hepatocytes": {"test_system": "rat hepatocytes", "assay": "Metabolic profiling in hepatocytes", "assay_type": "in vitro ADME", "conditions": "rat hepatocytes, MG3 10 µM, 1 h incubation, semi-quantitative", "protocol": "(§1) For metabolite profiling, MG3.2HCl (10 µM) was incubated with mouse, rat, dog, monkey, and human hepatocytes (300,000 cells/mL for the mouse and 1 × 10^6 cells/mL for the other species) in Leibovitz L-15 medium, at 37 °C. Incubations were performed in a 12-well plate under shaking. Aliquots of the incubation samples, together with a control in medium alone, were taken at t = 0 and 60 min; the metabolism was stopped by the addition of an equal volume of chilled ACN and the samples were centrifuged at 1100 rpm for 20 min. The supernatant was stored at −20 °C until analysis. The analyses were performed using an HPLC system (Agilent) online with a photodiode array (PDA) detector (Agilent) coupled to a Mass Spectrometer Q-TOF 2 (Waters), ESI positive, following the method reported in Table 1.\n(§2) The software utilized for searching the accurate masses of possible metabolites was Metabolynx, version 4.1 (Waters Corporation, Milford, MA, USA), with a mass window of 40 mDa. Samples were then re-run in MS/MS mode by selecting the masses of possible metabolites found. The collision energy used to obtain MS/MS data was 25 eV. The proposed identity of metabolites was based on their accurate mass (using LockSpray correction), with an accuracy of +/−5 mDa. MS/MS analyses were performed to verify that peaks were drug-related and to obtain structural information from the fragment ions formed. The structures of some metabolites are proposed. The approximate relative amounts of parent and metabolites were determined from the absolute areas taken from a selected ion chromatogram at the metabolite masses with a mass window of 0.04 Da."}, "human hepatocytes": {"test_system": "human hepatocytes", "assay": "Metabolic profiling in hepatocytes", "assay_type": "in vitro ADME", "conditions": "human hepatocytes, MG3 10 µM, 1 h incubation, semi-quantitative", "protocol": "as §1, §2"}, "[1]": {"test_system": "all the Pf strains tested", "assay": "In vitro antimalarial activity, summary over all Pf strains tested", "assay_type": "cell-based, P. falciparum", "conditions": "for IC50: Plasmodium falciparum", "protocol": "(§3) The strains D10 and 3D7 (CQ-Sensitive), and V1-S (CQ, pyrimethamine and cycloguanil resistant), K1 (CQ and PYR resistant), W2 and FCR3 (CQ-Resistant), TM90C2A (CQ, MQ, PYR and ATQ resistant) and IPC 5202 (MR4-1240, artemisinin-resistant, K13 mutation, and R539T) of Pf were cultured in vitro as described by Trager and Jensen with minor modifications. Briefly, parasites were maintained at 5% hematocrit (human type A-positive red blood cells) in RPMI 1640 (EuroClone, S.p.A. Milan, Italy) medium with the addition of 10% heat inactivate human serum or 1% AlbuMax (In vitrogen, Milan, Italy), 20 mM Hepes and 2 mM glutamine (Euroclone), at 37 °C in a standard gas mixture consisting of 1–3% O2, 5% CO2, and 92–94% N2.\n(§4) Compounds were dissolved in either water or DMSO and then diluted with medium to achieve the required concentrations (final non-toxic DMSO concentration <1%). Asynchronous cultures of Pf with parasitaemia of 1–1.5% and 1% final hematocrit were aliquoted into 96-well flat-bottom microplates (Corning, Glendale, AZ, USA) with serial dilutions of test compounds and incubated for 72 h at 37 °C. Parasite growth was determined spectrophotometrically (OD650) by measuring the activity of the parasite lactate dehydrogenase (pLDH) according to a modified version of the method of Makler in control and drug-treated cultures."}, "CYP2C9": {"molecular_target": "CYP2C9 (Homo sapiens, UniProt P11712)", "sequence (P11712 whole entry)": "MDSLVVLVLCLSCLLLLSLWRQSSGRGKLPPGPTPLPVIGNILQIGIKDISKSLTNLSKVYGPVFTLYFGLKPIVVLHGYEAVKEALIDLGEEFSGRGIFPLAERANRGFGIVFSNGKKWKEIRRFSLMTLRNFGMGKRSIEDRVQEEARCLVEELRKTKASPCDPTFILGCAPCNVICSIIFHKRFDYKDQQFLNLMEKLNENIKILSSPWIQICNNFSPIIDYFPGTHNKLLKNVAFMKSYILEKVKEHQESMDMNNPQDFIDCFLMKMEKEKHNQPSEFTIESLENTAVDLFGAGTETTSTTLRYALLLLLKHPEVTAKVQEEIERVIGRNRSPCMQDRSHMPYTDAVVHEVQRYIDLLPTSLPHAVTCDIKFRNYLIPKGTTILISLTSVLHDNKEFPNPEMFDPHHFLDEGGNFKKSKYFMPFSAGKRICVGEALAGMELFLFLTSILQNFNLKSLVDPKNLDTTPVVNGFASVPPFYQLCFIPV", "assay": "in vitro"}, "[2]": {"test_system": "P. falciparum FCR3 (CQ-R)", "assay": "In vitro antimalarial activity, [3H]-hypoxanthine incorporation (LSHTM)", "assay_type": "cell-based", "conditions": "Plasmodium falciparum, FCR3; 72 h, [3H]-hypoxanthine incorporation, mean of 3 experiments; read-out: P. falciparum IC50 nM, FCR3 (CQ-R)"}, "[3]": {"conditions": "CD1, mouse, in vivo, po, 10 mg/kg"}, "[4]": {"test_system": "P. falciparum IPC5202 (ARM-R)", "assay": "microbe, parasite or virus in culture", "assay_type": "cell-based", "protocol": "as §3, §4"}, "[5]": {"test_system": "Pf-3D7 gametocytes >95% Stage V", "assay": "Gametocyte luciferase assay (3D7elo1-pfs16-CBG99)", "assay_type": "cell-based, P. falciparum", "conditions": "Plasmodium falciparum, 3D7, read-out: Pf-3D7 gametocytes IC50 (nM), >95% Stage V", "protocol": "(§5) In vitro activity of MG3 against P falciparum sexual gametocyte stages […]\n(§6) luminescent transgenic 3D7 strain (3D7elo1-pfs16-CBG99) at two different stages (I-III and V) using the […]\n(§7) Briefly, 100 µL of culture medium were removed from each well to increase hematocrit; 70 µL of resuspended culture were transferred to a black 96-well plate; 70 µL of D-luciferin (1 mM in citrate buffer 0.1 M, pH 5.5) were added. Luminescence measurements were performed after 10 min with 500 ms integration time using a Synergy4-BioTek reader.\n(§8) (1 picture or pasted object on this page, not shown here)"}, "[6]": {"test_system": "Pf-3D7 gametocytes >95% Stage I-III", "assay": "Gametocyte luciferase assay (3D7elo1-pfs16-CBG99)", "assay_type": "cell-based, P. falciparum", "protocol": "as §5, §6, §7, §8"}, "P. chabaudi AS": {"test_system": "P. chabaudi AS", "assay": "Four-day suppressive Peters' test, oral", "assay_type": "in vivo, P. chabaudi in CD1 mice", "conditions": "once a day for 4 days, parasitemia day 4, CD1 mice", "protocol": "Groups of five CD1 mice were inoculated i.v., with 4 × 10^6 infected erythrocytes/mice. Compounds, dissolved in standard suspending formula (SSV) (0.5% sodium carboxymethylcellulose, 0.5% benzyl alcohol, 0.4% Tween 80, and 0.9% NaCl), were administered once a day for 4 days via oral gavage, starting two hours post-infection. […] Parasitemia was evaluated using microscopic examination of Giemsa-stained blood films taken on day four, processed using MICROSOFT® EXCEL spreadsheets (Microsoft Corp., Redmond, WA, USA), and expressed as percentages of inhibition from the arithmetic mean parasitemia of each group in relation to the untreated group. ED50 and ED90 values were calculated using GraphPad Prism 6 (GraphPad Software Inc., La Jolla, CA, USA)."}, "[7]": {"test_system": "Salmonella typhimurium TA98, TA100 and Escherichia coli WP2 uvrA", "assay": "Bacterial Reverse Mutation Assay, overall", "conditions": "with or without rat liver S9, up to 1000 per plate", "method": "using the preincubation method (30 min, 37°C) with and without phenobarbital-5,6-benzoflavone induced\nMG3 was dissolved in distilled water (H2O) at\nthe maximum concentration of 40 mg/mL and tested in a preliminary range-finding test in all strains of\nmetabolic activation to determine the toxicity of the compound."}},
  "note": "Several values for one entry are separate records, joined by “and”; a condition that tells them apart may be missing. Identical values can stand only once. Like-named read-outs stand apart in the source and are kept apart here.",
  "data": [
    {"smiles": "Clc1ccc2c(NCC34CCCN3CCC4)ccnc2c1", "note": "[MG3, 7-Chloro-N-((hexahydro-1H-pyrrolizin-7a-yl)methyl)quinolin-4-amine]", "values": [
      {"measurement": "Mean ∑FIC50 (95% CI)", "setting": "P. falciparum K1 (CQ-R); in combination with ASN, K1, IC50 level", "value": "1.25 (0.94 – 1.56)"},
      {"measurement": "Mean ∑FIC50 (95% CI)", "setting": "P. falciparum K1 (CQ-R); in combination with DHA, K1, IC50 level", "value": "1.25 (1.21 – 1.29)"},
      {"measurement": "Mean ∑FIC50 (95% CI)", "setting": "P. falciparum K1 (CQ-R); in combination with RKA-182, K1, IC50 level", "value": "1.24 (0.85 – 1.63)"},
      {"measurement": "interaction (isobologram)", "setting": "P. falciparum K1 (CQ-R); in combination with azitromycin, K1 (CQ-R)", "value": "additive"},
      {"measurement": "% of Total Drug Related Material", "setting": "rat hepatocytes", "value": 53, "unit": "%"},
      {"measurement": "% of Total Drug Related Material", "setting": "human hepatocytes", "value": 82, "unit": "%"},
      {"measurement": "activity fold lower than that of ASN or DHA", "setting": "[1]; P. falciparum strains", "value": "5–6 fold"},
      {"measurement": "IC50", "setting": "[1]; read-out: mean IC50 against all the Pf strains tested", "value": 20.9, "unit": "nM"},
      {"measurement": "IC50", "setting": "[1]; range over strains, read-out: IC50 range against all the Pf strains tested", "value": "12 to 30", "unit": "nM"},
      {"measurement": "inhibition at 3 µM", "setting": "CYP2C9", "value": "8.8 ± 2.2", "unit": "%"},
      {"measurement": "IC50", "setting": "[2]", "value": 13.2, "unit": "nM"},
      {"measurement": "AUClast", "setting": "[3]", "value": "41,067 min*ng/mL"},
      {"measurement": "IC50", "setting": "[4]; Plasmodium falciparum, 72 h, read-out: P. falciparum IC50 nM, IPC5202 (ARM-R), 72 h incubation, pLDH method", "value": "< 15", "unit": "nM"},
      {"measurement": "IC50", "setting": "[4]; read-out: P. falciparum IC50 nM, IPC5202 (ARM-R), 72 h incubation, pLDH method", "value": "10 nM and 10.7 nM"},
      {"measurement": "IC50", "setting": "[5]", "value": "10700 ± 2790", "unit": "nM"},
      {"measurement": "IC50", "setting": "[6]; Plasmodium falciparum, 3D7, read-out: Pf-3D7 gametocytes IC50 (nM), >95% Stage I-III, luciferase readout, 3D7elo1-pfs16-CBG99", "value": "102 ± 22.1", "unit": "nM"},
      {"measurement": "IC50", "setting": "[6]; read-out: Pf-3D7 gametocytes IC50 (nM), >95% Stage I-III, luciferase readout, 3D7elo1-pfs16-CBG99", "value": "~100", "unit": "nM"},
      {"measurement": "ED50", "setting": "P. chabaudi AS; Plasmodium chabaudi, 96 h, read-out: ED50 (95% CI) Mean", "value": 4.69, "unit": "mg/kg"},
      {"measurement": "ED90 (95% CI) Mean", "setting": "P. chabaudi AS", "value": "9.80 (8.86–10.6) mg/kg"},
      {"measurement": "mutagenicity judgement", "setting": "[7]", "value": "non-mutagenic"}
    ]}
  ]
}
